Reference: ChEMBL document CHEMBL4376803, “Recent Advances in the Exploration of Therapeutic Analogues of Gramicidin S, an Old but Still Potent Antimicrobial Peptide” (J Med Chem, 2019)
≈ marks a conversion by molar mass, not a printed value.

How the values were obtained:
Escherichia coli [1] = test: Antibacterial activity against Escherichia coli ATCC 25922 after overnight incubation; format: functional
Staphylococcus aureus [2] = test: Antibacterial activity against Staphylococcus aureus ATCC 29213 after overnight incubation; format: functional
Enterococcus faecalis [3] = test: Antibacterial activity against Enterococcus faecalis ATCC 29212 after overnight incubation; format: functional
Pseudomonas aeruginosa [4] = test: Antibacterial activity against Pseudomonas aeruginosa ATCC 19582 after 24 hrs by broth dilution method; format: functional; conditions: ATCC 19582, 24 h
[5] = Hemolytic activity against RBC (unknown origin) at 100 ul after 4 hrs; format: ADME, cell-based, Erythrocyte; conditions: red blood cells (unknown origin)
Enterococcus faecalis [6] = test: Antibacterial activity against Enterococcus faecalis 1131 after 24 hrs by broth dilution method; format: functional; conditions: Enterococcus faecalis, 1131, 24 h
Escherichia coli [7] = test: Antibacterial activity against Escherichia coli ATCC 25922 after 24 hrs by broth dilution method; format: functional; conditions: ATCC 25922, 24 h
Staphylococcus aureus [8] = test: Antibacterial activity against Staphylococcus aureus 7323; format: functional
[9] = Haemolytic activity in human erythrocytes incubated for 30 mins; format: ADME, cell-based, Erythrocyte
Escherichia coli [10] = test: Antibacterial activity against Escherichia coli K-12 strain W3110 incubated for 20 hrs by liquid microdilution method; format: functional; conditions: K-12 substr. W3110, 20 h
Staphylococcus aureus [11] = test: Antibacterial activity against Staphylococcus aureus 209P incubated for 20 hrs by liquid microdilution method; format: functional
Priestia megaterium = test: Antibacterial activity against Bacillus megaterium ATCC 19213 after overnight incubation by microplate dilution method; format: functional
Staphylococcus aureus [12] = test: Antibacterial activity against Staphylococcus aureus NBRC 12732 after overnight incubation by microplate dilution method; format: functional
[13] = Hemolytic activity in sheep RBC incubated for 30 mins; format: ADME, cell-based, Ovis aries, Erythrocyte; conditions: sheep red blood cells
Bacillus subtilis = test: Antibacterial activity against Bacillus subtilis NBRC 3513 after overnight incubation by microplate dilution method; format: functional
Escherichia coli [14] = test: Antibacterial activity against Escherichia coli NBRC 12734 after overnight incubation by microplate dilution method; format: functional
Pseudomonas aeruginosa [15] = test: Antibacterial activity against Pseudomonas aeruginosa NBRC 3080 after overnight incubation by microplate dilution method; format: functional
Enterococcus faecalis [16] = test: Antibacterial activity against Enterococcus faecalis ATCC 29212 after 24 hrs; format: functional; conditions: ATCC 29212, 24 h
Staphylococcus aureus [17] = test: Antibacterial activity against methicillin-resistant Staphylococcus aureus NT 1110301981H-T034-PVL+ incubated for 24 hrs; format: functional
Pseudomonas aeruginosa [18] = test: Antibacterial activity against Pseudomonas aeruginosa ATCC 27853 incubated for 24 hrs; format: functional; conditions: ATCC 27853, 24 h
Escherichia coli [19] = test: Antibacterial activity against Escherichia coli ATCC 25922 after 24 hrs; format: functional; conditions: ATCC 25922, 24 h
Staphylococcus aureus [20] = test: Antibacterial activity against Staphylococcus aureus ATCC 29213 after 24 hrs; format: functional; conditions: ATCC 29213, 24 h

CC(C)C[C@@H]1NC(=O)[C@H](CCCN)NC(=O)[C@H](C(C)C)NC(=O)[C@@H]2CCCN2C(=O)[C@@H](Cc2ccc(O)cc2)NC(=O)[C@H](CC(C)C)NC(=O)[C@@H](CCCN)NC(=O)[C@H](C(C)C)NC(=O)[C@@H]2CCCN2C(=O)[C@@H](Cc2ccc(O)cc2)NC1=O
MIC (Escherichia coli [1]): 64 µg/mL (≈ 54.5 µM) | MIC (Staphylococcus aureus [2]): 32 µg/mL (≈ 27.3 µM) | MIC (Enterococcus faecalis [3]): 32 µg/mL (≈ 27.3 µM)

CC(C)C[C@@H]1NC(=O)[C@H](CCCN)NC(=O)[C@H](C(C)C)NC(=O)[C@@H]2CCCN2C(=O)[C@@H](Cc2cn(Cc3cccc4ccccc34)nn2)NC(=O)[C@H](CC(C)C)NC(=O)[C@@H](CCCN)NC(=O)[C@H](C(C)C)NC(=O)[C@@H]2CCCN2C(=O)[C@@H](Cc2ccccc2)NC1=O
MIC (Pseudomonas aeruginosa [4]): > 64 µg/mL | HC50 at 4 h [5]: 5 to 10 µg/mL | MIC (Enterococcus faecalis [6]): 4 µg/mL (≈ 3.14 µM) | MIC (Escherichia coli [7]): 64 µg/mL (≈ 50.3 µM) | MIC (Staphylococcus aureus [8]): 4 µg/mL (≈ 3.14 µM)

CC(C)C[C@@H]1NC(=O)[C@H](CCCN)NC(=O)[C@H](C(C)C)NC(=O)[C@@H]2CCCN2C(=O)[C@@H](Cc2c[nH]nn2)NC(=O)[C@H](CC(C)C)NC(=O)[C@@H](CCCN)NC(=O)[C@H](C(C)C)NC(=O)[C@@H]2CCCN2C(=O)[C@@H](Cc2ccccc2)NC1=O
MIC (Pseudomonas aeruginosa [4]): > 64 µg/mL | HC50 at 4 h [5]: 45 to 55 µg/mL | MIC (Enterococcus faecalis [6]): 64 µg/mL (≈ 56.5 µM) | MIC (Escherichia coli [7]): 32 µg/mL (≈ 28.3 µM) | MIC (Staphylococcus aureus [8]): 16 µg/mL (≈ 14.1 µM)

CC(C)C[C@@H]1NC(=O)[C@H](CCCN)NC(=O)[C@H](C(C)C)NC(=O)[C@@H]2C[C@@H](N)CN2C(=O)[C@@H](Cc2ccccc2)NC(=O)[C@H](CC(C)C)NC(=O)[C@H](CCCN)NC(=O)[C@H](C(C)C)NC(=O)[C@@H]2C[C@@H](N)CN2C(=O)[C@@H](Cc2ccccc2)NC1=O [listing 1 of 2 here]
HC50 at 0.5 h [9]: 50 to 100 µg/mL

CC(C)C[C@@H]1NC(=O)[C@H](CCCN)NC(=O)[C@H](C(C)C)NC(=O)[C@@H]2C[C@@H](N)CN2C(=O)[C@@H](Cc2ccccc2)NC(=O)[C@H](CC(C)C)NC(=O)[C@H](CCCN)NC(=O)[C@H](C(C)C)NC(=O)[C@@H]2C[C@@H](N)CN2C(=O)[C@@H](Cc2ccccc2)NC1=O [listing 2 of 2 here]
MIC (Escherichia coli [10]): 64 µg/mL (≈ 54.6 µM) | MIC (Staphylococcus aureus [11]): 32 µg/mL (≈ 27.3 µM)

CC(C)C[C@@H]1NC(=O)[C@H](CCCN)NC(=O)[C@H](C(C)C)NC(=O)[C@@H]2C[C@@H](N[C@@H](Cc3ccccc3)C(=O)O)CN2C(=O)[C@@H](Cc2ccccc2)NC(=O)[C@H](CC(C)C)NC(=O)[C@H](CCCN)NC(=O)[C@H](C(C)C)NC(=O)[C@@H]2C[C@@H](N[C@@H](Cc3ccccc3)C(=O)O)CN2C(=O)[C@@H](Cc2ccccc2)NC1=O [listing 1 of 2 here]
HC50 at 0.5 h [9]: 20 to 50 µg/mL

CC(C)C[C@@H]1NC(=O)[C@H](CCCN)NC(=O)[C@H](C(C)C)NC(=O)[C@@H]2C[C@@H](N[C@@H](Cc3ccccc3)C(=O)O)CN2C(=O)[C@@H](Cc2ccccc2)NC(=O)[C@H](CC(C)C)NC(=O)[C@H](CCCN)NC(=O)[C@H](C(C)C)NC(=O)[C@@H]2C[C@@H](N[C@@H](Cc3ccccc3)C(=O)O)CN2C(=O)[C@@H](Cc2ccccc2)NC1=O [listing 2 of 2 here]
MIC (Escherichia coli [10]): 16 µg/mL (≈ 10.9 µM) | MIC (Staphylococcus aureus [11]): 8 µg/mL (≈ 5.45 µM)

CC(C)C[C@@H]1NC(=O)[C@H](CCCN)NC(=O)[C@H](C(C)C)NC(=O)[C@@H]2CCCN2C(=O)[C@@H](Cc2ccccc2)NC(=O)[C@H](CC(C)C)NC(=O)[C@H](CCCN)NC(=O)[C@H](C(C)C)NC(=O)[C@@H]2CCCN2C(=O)NC(=O)[C@H](Cc2ccccc2)NC(=O)[C@H](CCCN)NC1=O
MIC (Priestia megaterium): 3.13 µg/mL (≈ 2.41 µM) | MIC (Staphylococcus aureus [12]): 3.13 µg/mL (≈ 2.41 µM) | HC50 at 0.5 h [13]: 90 to 100 µg/mL | MIC (Bacillus subtilis): 6.25 µg/mL (≈ 4.81 µM) | MIC (Escherichia coli [14]): 25 µg/mL (≈ 19.3 µM) | MIC (Pseudomonas aeruginosa [15]): 100 µg/mL (≈ 77 µM)

CC(C)[C@@H]1NC(=O)[C@H](CCCN)NC(=O)[C@@H]2CCCN2C(=O)[C@@H](Cc2ccccc2)NC(=O)[C@H](CCCN)NC(=O)[C@@H](C(C)C)NC(=O)[C@H](CCCN)NC(=O)[C@@H]2CCCN2C(=O)[C@@H](Cc2ccccc2)NC(=O)[C@H](CCCN)NC1=O
MIC (Enterococcus faecalis [16]): > 64 µg/mL | MIC (Staphylococcus aureus [17]): > 64 µg/mL | MIC (Pseudomonas aeruginosa [18]): > 64 µg/mL | MIC (Escherichia coli [19]): > 64 µg/mL | MIC (Staphylococcus aureus [20]): > 64 µg/mL
